This is an account of results in ChEMBL document CHEMBL1201862, “PubChem BioAssay data set” (2004).

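Each compound was tested at five concentrations against cells in 96-well plates for 48 hours. At the GI50, growth is halved.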 Active and inactive are the calls of the source. Rule as the data show it: active = GI50 up to about 1.1 µM and inactive = higher.

Test systems include BT-549; RXF 393; HL-60; PC-3; SK-MEL-28; OVCAR-3; SR; ACHN; MDA-MB-435; MDA-N; COLO 205; Hs-578T; T47D; SK-OV-3; UO-31; SN12C.
Common to all, as to experiment: NCI tumour cell line growth inhibition, 48 h

In the case of `CCCCCCNCCCNc1c2ccccc2nc2cccc([N+](=O)[O-])c12`, the GI50 in the test on BT-549 was 0.11 µM (active); in the test with RXF 393, 0.0148 µM (active); with HL-60, 0.0151 µM (active); in the test on PC-3 it was 0.0163 µM (active); in the test with SK-MEL-28 it was 0.158 µM (active); with OVCAR-3 it was 0.0171 µM (active). In addition, the GI50 is 0.0256 µM (active) with SR; 0.0132 µM (active) with ACHN; 0.0103 µM (active) with MDA-MB-435; 0.0118 µM (active) in the test on MDA-N; 0.00347 µM (active) with COLO 205; 0.0448 µM (active) in the test on Hs-578T. The GI50 in the test with T47D is 0.0369 µM (active); in the test with SK-OV-3, 0.051 µM (active); in the test on UO-31, 0.122 µM (active); in the test with SN12C it was 0.0173 µM (active).
As to `CC1(C)C/C(=N/O)c2c(nc3ccc4ccccc4c3c2-c2ccc(Cl)cc2)C1`, the GI50 in the test on BT-549 is 10.6 µM (inactive); in the test on RXF 393, 17.6 µM (inactive); with HL-60, 9.14 µM (inactive); with PC-3, 25.9 µM (inactive); with SK-MEL-28 it was 31.3 µM (inactive); in the test with OVCAR-3 it was 12.3 µM (inactive). Also, the GI50 was 4.75 µM (inactive) in the test on SR; 6.79 µM (inactive) in the test on ACHN; 60.1 µM (inactive) in the test on MDA-MB-435; 25.1 µM (inactive) in the test on MDA-N; 18.2 µM (inactive) with COLO 205; 23.3 µM (inactive) with Hs-578T. In addition, the GI50 is 12.1 µM (inactive) with T47D, 15 µM (inactive) in the test on SK-OV-3, 16.8 µM (inactive) in the test on UO-31 and 10.8 µM (inactive) in the test on SN12C.
Regarding `CC(C)=CC(=O)c1[nH]c2ccccc2c1CC(=O)NCCc1c[nH]cn1`, the GI50 in the test with BT-549, with RXF 393, in the test on HL-60, with PC-3, in the test with SK-MEL-28 and with OVCAR-3 was > 100 µM (inactive) each time. The GI50 in the test with SR, in the test with ACHN, with MDA-MB-435, with MDA-N, in the test on COLO 205 and in the test with Hs-578T was > 100 µM (inactive) throughout. Also, the GI50 with T47D, with SK-OV-3, in the test with UO-31 and in the test with SN12C was > 100 µM (inactive) in each case.
For `Cc1ccccc1C(=O)N1CCc2c([nH]c3ccccc23)C1`, the GI50 with BT-549 was 18.7 µM (inactive); with RXF 393, 18.6 µM (inactive); in the test with HL-60, 17.5 µM (inactive); with PC-3, 14 µM (inactive); in the test with SK-MEL-28, 28.9 µM (inactive); in the test on OVCAR-3, 27.5 µM (inactive). In addition, the GI50 with SR is 13.7 µM (inactive); in the test with ACHN, 34.9 µM (inactive); with MDA-MB-435, 14.4 µM (inactive); in the test with MDA-N it was 18.9 µM (inactive); with COLO 205, 17.4 µM (inactive); in the test on Hs-578T it was 29 µM (inactive). The GI50 was 21.9 µM (inactive) in the test on T47D, 32.4 µM (inactive) in the test with SK-OV-3, 31.2 µM (inactive) in the test with UO-31 and 17.2 µM (inactive) in the test on SN12C.
For `CC1CCCN(CC(O)CN2CCCc3ccccc32)C1` (stereo not given), the GI50 in the test with BT-549 is > 100 µM (inactive); in the test on RXF 393 it was > 100 µM (inactive); with HL-60, 8.02 µM (inactive); in the test on PC-3, > 100 µM (inactive); in the test with SK-MEL-28 it was > 100 µM (inactive); in the test with OVCAR-3, > 100 µM (inactive). The GI50 in the test with SR is > 100 µM (inactive); in the test on ACHN it was > 100 µM (inactive); with MDA-MB-435, > 100 µM (inactive); in the test on MDA-N it was > 100 µM (inactive); in the test with COLO 205, > 100 µM (inactive); with Hs-578T, 56.2 µM (inactive). The GI50 was > 100 µM (inactive) with T47D, > 100 µM (inactive) in the test on SK-OV-3, 76 µM (inactive) in the test on UO-31 and > 100 µM (inactive) with SN12C.
